Assay [1] addresses Voltage-dependent L-type calcium channel subunit alpha-1C (Rattus norvegicus, UniProt P22002). Format: functional.
In assay [2] the target is T1, 5-hydroxytryptamine receptor 2C (Homo sapiens, UniProt P28335).
T1 sequence (P28335 whole entry): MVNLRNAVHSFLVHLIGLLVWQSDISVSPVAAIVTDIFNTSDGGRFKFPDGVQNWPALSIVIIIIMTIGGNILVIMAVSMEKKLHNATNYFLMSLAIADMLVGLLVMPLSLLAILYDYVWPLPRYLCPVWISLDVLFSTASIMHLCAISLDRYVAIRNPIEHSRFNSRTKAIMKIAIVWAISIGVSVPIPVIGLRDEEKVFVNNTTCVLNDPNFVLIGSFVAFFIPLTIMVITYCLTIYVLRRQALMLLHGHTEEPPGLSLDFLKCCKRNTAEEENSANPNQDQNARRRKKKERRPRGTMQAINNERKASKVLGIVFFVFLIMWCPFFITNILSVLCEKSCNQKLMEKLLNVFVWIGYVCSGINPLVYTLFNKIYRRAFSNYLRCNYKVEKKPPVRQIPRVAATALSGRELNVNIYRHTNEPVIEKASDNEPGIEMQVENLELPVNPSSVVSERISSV

The target of assay [3] is T2, Amine oxidase [flavin-containing] A (Homo sapiens, UniProt P21397).
T2 sequence (P21397 whole entry): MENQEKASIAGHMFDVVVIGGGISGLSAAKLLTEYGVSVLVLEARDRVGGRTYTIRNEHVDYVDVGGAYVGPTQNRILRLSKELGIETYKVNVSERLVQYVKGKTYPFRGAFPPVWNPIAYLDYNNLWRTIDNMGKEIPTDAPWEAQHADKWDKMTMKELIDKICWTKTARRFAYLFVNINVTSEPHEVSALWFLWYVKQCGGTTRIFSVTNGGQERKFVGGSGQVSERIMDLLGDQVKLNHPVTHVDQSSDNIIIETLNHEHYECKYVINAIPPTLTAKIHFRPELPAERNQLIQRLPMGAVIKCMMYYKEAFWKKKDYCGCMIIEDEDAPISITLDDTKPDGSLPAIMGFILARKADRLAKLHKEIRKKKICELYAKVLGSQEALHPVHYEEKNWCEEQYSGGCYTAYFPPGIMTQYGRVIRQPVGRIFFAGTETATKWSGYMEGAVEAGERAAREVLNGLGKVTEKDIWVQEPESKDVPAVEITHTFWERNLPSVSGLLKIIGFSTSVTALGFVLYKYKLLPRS
Format: functional.

The target in assay [4] is T3, Progesterone receptor (Homo sapiens, UniProt P06401).
T3 sequence (P06401 whole entry): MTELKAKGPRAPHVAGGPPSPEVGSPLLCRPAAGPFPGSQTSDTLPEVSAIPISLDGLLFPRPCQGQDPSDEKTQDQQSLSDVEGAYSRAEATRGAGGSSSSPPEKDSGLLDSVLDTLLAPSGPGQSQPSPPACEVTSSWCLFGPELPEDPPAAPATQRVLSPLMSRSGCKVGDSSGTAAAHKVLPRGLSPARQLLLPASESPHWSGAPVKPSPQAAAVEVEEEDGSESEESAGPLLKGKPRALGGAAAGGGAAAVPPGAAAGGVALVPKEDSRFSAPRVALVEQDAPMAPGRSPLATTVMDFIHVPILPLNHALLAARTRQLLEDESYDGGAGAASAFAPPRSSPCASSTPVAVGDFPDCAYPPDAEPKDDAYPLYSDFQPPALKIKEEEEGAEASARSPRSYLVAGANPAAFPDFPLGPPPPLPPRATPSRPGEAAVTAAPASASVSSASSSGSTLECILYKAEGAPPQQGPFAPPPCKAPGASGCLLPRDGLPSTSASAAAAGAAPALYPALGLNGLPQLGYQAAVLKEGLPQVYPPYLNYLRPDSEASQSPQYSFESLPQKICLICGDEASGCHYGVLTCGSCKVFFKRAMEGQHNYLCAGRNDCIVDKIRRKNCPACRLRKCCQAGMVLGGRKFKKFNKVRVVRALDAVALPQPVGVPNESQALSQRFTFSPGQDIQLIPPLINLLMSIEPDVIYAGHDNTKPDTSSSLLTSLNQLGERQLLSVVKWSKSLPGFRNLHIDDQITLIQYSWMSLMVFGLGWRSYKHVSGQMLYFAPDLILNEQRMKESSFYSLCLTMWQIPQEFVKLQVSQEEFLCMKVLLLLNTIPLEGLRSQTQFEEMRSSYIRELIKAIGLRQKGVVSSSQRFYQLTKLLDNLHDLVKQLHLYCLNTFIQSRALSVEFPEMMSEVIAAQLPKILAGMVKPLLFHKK
In kind it is functional.

In assay [5] the target is Melanocortin receptor 4 (Homo sapiens, UniProt P32245).
Sequence of Melanocortin receptor 4 (P32245 whole entry): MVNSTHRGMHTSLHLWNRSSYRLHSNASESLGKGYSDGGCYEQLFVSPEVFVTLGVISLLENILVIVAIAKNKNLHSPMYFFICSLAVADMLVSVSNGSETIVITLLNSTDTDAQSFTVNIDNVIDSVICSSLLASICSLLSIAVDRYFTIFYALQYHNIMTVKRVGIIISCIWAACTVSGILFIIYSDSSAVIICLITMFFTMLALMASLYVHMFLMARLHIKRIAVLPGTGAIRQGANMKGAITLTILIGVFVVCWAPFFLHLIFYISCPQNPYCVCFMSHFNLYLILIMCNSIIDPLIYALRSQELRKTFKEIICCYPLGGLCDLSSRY
Assay [6] deals with T4, Glucocorticoid receptor (Homo sapiens, UniProt P04150).
T4 sequence (P04150 whole entry): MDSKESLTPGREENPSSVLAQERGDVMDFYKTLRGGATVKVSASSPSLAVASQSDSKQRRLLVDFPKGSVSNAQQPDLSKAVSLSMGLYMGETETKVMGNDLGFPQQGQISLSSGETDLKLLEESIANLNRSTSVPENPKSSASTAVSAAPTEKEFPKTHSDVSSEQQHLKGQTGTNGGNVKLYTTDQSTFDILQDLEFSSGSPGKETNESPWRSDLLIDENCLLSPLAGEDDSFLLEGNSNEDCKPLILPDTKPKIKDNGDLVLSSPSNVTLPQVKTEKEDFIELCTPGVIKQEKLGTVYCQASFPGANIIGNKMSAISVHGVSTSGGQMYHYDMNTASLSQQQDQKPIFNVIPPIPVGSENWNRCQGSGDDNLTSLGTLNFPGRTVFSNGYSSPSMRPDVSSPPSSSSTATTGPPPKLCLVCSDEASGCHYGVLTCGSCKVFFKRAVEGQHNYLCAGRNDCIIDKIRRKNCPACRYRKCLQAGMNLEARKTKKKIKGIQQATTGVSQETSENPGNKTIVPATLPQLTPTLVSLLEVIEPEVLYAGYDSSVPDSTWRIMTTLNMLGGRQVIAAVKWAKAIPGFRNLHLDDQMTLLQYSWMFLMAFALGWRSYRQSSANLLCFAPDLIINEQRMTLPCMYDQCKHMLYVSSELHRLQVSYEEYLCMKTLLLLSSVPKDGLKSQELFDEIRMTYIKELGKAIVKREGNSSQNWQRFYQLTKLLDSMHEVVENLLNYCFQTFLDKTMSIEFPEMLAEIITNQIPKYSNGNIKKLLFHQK
Note: assay procedure not described here.

Sequence of Voltage-dependent L-type calcium channel subunit alpha-1C (P22002 whole entry): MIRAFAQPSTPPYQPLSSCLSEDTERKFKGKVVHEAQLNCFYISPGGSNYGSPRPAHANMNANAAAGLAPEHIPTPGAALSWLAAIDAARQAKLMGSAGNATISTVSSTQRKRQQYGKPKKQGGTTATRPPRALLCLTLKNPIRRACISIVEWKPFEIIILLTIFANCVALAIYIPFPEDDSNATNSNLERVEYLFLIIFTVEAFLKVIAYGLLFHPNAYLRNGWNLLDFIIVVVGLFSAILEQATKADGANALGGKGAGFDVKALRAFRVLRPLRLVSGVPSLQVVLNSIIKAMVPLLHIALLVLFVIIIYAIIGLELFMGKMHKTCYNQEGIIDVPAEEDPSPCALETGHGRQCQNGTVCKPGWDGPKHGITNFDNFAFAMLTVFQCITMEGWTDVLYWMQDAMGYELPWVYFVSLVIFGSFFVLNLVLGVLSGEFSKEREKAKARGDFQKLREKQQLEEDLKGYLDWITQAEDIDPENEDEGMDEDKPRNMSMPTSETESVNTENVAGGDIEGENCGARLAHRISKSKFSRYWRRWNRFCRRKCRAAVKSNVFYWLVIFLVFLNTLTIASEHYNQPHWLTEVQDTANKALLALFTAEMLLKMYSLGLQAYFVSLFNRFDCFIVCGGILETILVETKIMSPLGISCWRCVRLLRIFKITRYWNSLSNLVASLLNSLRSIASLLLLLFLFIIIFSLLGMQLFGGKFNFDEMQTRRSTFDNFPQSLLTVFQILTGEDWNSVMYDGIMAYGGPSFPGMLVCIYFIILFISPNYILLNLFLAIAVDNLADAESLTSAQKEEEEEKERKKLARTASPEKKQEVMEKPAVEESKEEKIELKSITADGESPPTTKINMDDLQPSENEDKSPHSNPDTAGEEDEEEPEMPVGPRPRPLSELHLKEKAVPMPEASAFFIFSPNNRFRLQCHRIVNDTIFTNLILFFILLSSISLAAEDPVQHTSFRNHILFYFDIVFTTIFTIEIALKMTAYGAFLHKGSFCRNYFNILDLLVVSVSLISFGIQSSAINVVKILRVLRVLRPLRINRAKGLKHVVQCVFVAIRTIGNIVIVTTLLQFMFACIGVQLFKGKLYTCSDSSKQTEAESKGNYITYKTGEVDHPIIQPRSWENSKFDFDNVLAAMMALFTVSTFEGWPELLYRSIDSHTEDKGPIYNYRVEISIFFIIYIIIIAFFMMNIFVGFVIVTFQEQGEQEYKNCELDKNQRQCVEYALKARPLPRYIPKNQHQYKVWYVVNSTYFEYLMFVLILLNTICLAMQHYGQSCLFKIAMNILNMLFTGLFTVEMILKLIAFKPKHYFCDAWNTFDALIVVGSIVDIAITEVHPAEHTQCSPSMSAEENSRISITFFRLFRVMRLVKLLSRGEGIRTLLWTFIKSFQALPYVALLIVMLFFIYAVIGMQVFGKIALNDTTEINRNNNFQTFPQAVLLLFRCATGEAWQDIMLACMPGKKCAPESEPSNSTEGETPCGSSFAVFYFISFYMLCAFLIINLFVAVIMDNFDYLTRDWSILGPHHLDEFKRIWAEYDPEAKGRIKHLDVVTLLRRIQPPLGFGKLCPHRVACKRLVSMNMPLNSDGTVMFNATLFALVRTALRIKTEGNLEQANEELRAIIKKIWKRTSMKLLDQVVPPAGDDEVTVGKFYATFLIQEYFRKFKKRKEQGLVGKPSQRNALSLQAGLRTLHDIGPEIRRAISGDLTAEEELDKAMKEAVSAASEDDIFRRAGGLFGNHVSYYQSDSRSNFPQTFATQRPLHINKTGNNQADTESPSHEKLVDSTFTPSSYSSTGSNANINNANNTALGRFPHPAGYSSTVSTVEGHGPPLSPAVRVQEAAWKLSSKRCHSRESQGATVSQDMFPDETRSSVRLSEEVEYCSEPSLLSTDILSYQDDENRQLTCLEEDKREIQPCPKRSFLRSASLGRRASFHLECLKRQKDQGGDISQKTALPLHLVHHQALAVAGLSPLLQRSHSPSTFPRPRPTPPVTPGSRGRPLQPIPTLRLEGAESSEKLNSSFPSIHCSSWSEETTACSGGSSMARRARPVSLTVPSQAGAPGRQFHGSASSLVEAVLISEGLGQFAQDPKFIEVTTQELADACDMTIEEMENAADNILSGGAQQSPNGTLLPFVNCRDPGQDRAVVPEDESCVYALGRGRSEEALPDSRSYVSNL

Broadly, the AC50 is the midpoint of the concentration-response curve, whichever way the signal moves. In the case of `CC/C(=C(\c1ccccc1)c1ccc(OCCN(C)C)cc1)c1ccccc1` [TAMOXIFEN], the figures for the AC50 in assay [1], in assay [2] and in assay [3] were > 10 µM, 7 µM and > 10 µM, respectively.

Take `COc1ccc2c3c1O[C@H]1[C@@H](O)CC[C@H]4[C@@H](C2)N(C)CC[C@@]341` [DIHYDROCODEINE]: the figures for the concentration at half-maximal activity (AC50) in assay [2] and in assay [3] were > 10 µM and > 30 µM, respectively.

`O=C1C(O)=C([C@H]2CC[C@H](c3ccc(Cl)cc3)CC2)C(=O)c2ccccc21` [ATOVAQUONE]: the AC50 in assay [1], in assay [2], in assay [4] and in assay [3] was > 30 µM throughout.

Take `Clc1ccccc1C(c1ccccc1)(c1ccccc1)n1ccnc1` [CLOTRIMAZOLE]: the half-maximal activity concentration (AC50) in assay [1] is 13.6 µM; in assay [2], > 30 µM; in assay [3], > 10 µM.

As for `Cc1c(OCC(F)(F)F)ccnc1C[S+]([O-])c1nc2ccccc2[nH]1` (stereo not drawn) [LANSOPRAZOLE], the AC50 in assay [1] was > 10 µM; in assay [2] it was > 10 µM; in assay [5], > 30 µM; in assay [6], > 30 µM; in assay [3] it was > 10 µM.

Take `C[C@H]1COc2c(C3(N)CC3)c(F)cc3c(=O)c(C(=O)O)cn1c23` [PAZUFLOXACIN]: the AC50 is > 10 µM in assay [1]; > 30 µM in assay [2]; > 10 µM in assay [5]; > 30 µM in assay [6]; > 10 µM in assay [3].

For `CC(CC1c2ccccc2CCc2ccccc21)CN(C)C` (stereo not drawn) [BUTRIPTYLINE], the concentration at half-maximal activity (AC50) is 3 µM in assay [2] and > 30 µM in assay [3].

In the case of `Cc1nnc2n1-c1ccc(Cl)cc1C(c1ccccc1Cl)=NC2` [TRIAZOLAM], the AC50 in assay [1] is > 10 µM; in assay [2], > 30 µM; in assay [5] it was > 30 µM; in assay [6], > 30 µM; in assay [3], > 10 µM.

`C#C[C@]1(O)CC[C@H]2[C@@H]3[C@H](C)CC4=C(CCC(=O)C4)[C@H]3CC[C@@]21C` [TIBOLONE]: the AC50 is > 30 µM in assay [1], > 30 µM in assay [2], 0.4 µM in assay [4] and > 30 µM in assay [3].

Consider `Cc1cc(C(C)(C)C)c(O)c(C)c1CC1=NCCN1` [OXYMETAZOLINE], for which the half-maximal activity concentration (AC50) in assay [2] is 6.8 µM; in assay [4], > 30 µM; in assay [3], > 30 µM.

`CC1(C)CCC(CN2CCN(c3ccc(C(=O)NS(=O)(=O)c4ccc(NCC5CCOCC5)c([N+](=O)[O-])c4)c(Oc4cnc5[nH]ccc5c4)c3)CC2)=C(c2ccc(Cl)cc2)C1` [VENETOCLAX]: the concentration at half-maximal activity (AC50) in assay [4] and in assay [3] was > 30 µM in each case.

With `NC(=O)OCC(COC(N)=O)c1ccccc1` [FELBAMATE], the AC50 was > 10 µM in assay [1]; > 30 µM in assay [2]; > 10 µM in assay [5]; > 10 µM in assay [6]; > 10 µM in assay [4]; > 10 µM in assay [3].

In the case of `COc1ccc(CCNCC(O)COc2cccc(C)c2)cc1OC` (stereo not drawn) [BEVANTOLOL], the AC50 in assay [1] was > 10 µM; in assay [2], > 30 µM; in assay [5], > 10 µM; in assay [6], > 10 µM; in assay [4] it was > 10 µM; in assay [3], > 10 µM.

For `CC(C)(C)NCC(O)COc1cccc2c1CCC(=O)N2` (stereo not drawn) [CARTEOLOL], the AC50 in assay [1] was > 10 µM; in assay [2], > 30 µM; in assay [5], > 10 µM; in assay [6] it was > 10 µM; in assay [4], > 10 µM; in assay [3], > 10 µM.

Take `COc1cccc(C2(O)CCCCC2CN(C)C)c1` (stereo not drawn) [TRAMADOL]: the half-maximal activity concentration (AC50) in assay [1] is > 10 µM; in assay [2] it was > 30 µM; in assay [5], > 30 µM; in assay [6], > 30 µM; in assay [3], > 10 µM.

As for `C[C@@H]1O[C@@H](O[C@@H]2C=C3CC[C@@H]4[C@H](CC[C@]5(C)[C@@H](c6ccc(=O)oc6)CC[C@]45O)[C@@]3(C)CC2)[C@H](O)[C@H](O)[C@H]1O` [PROSCILLARIDIN], the concentration at half-maximal activity (AC50) in assay [1], in assay [2], in assay [6], in assay [4] and in assay [3] was > 30 µM in each case.

`NC(=O)CN1CC(O)CC1=O` (stereo not drawn) [OXIRACETAM]: the half-maximal activity concentration (AC50) in assay [2], in assay [6], in assay [4] and in assay [3] was > 30 µM throughout.

As to `Brc1c(NC2=NCCN2)ccc2nccnc12` [BRIMONIDINE], the half-maximal activity concentration (AC50) in assay [2], in assay [6], in assay [4] and in assay [3] was > 30 µM each time.

For `Nc1nc(Cl)nc2c1ncn2[C@H]1C[C@H](O)[C@@H](CO)O1` [CLADRIBINE], the AC50 in assay [2], in assay [6], in assay [4] and in assay [3] was > 30 µM in each case.

For `Fc1ccc(C(c2ccccc2)(c2ccccc2F)n2ccnc2)cc1` (stereo not drawn) [FLUTRIMAZOLE], the half-maximal activity concentration (AC50) in assay [1], in assay [2], in assay [6], in assay [4] and in assay [3] was > 30 µM in each case.

For the origin of these results see ChEMBL document CHEMBL5291721, “A preclinical secondary pharmacology resource illuminates target-adverse drug reaction associations of marketed drugs” (Nat Commun, 2023).
